Data from the METLIN SMRT retention time set (Domingo-Almenara et al. 2019).

Test: gradient 5% acetonitrile 3 min, to 50% in 2 min, to 85% in 15 min, held 3 min, 100 µL/min
Conditions: column: Zorbax Extend-C18 2.1 x 50 mm; eluents: water / acetonitrile, 0.1% formic acid
How it was run: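 Pure standards were run in mixtures of ~100 molecules by HPLC coupled to a quadrupole time-of-flight mass spectrometer. The column was a Zorbax Extend-C18 (2.1 × 50 mm, 1.8 μm) at 100 μL/min, with water and acetonitrile each containing 0.1% formic acid, in positive and negative ionization mode. Dead and dwell volumes were 40 μL and 900 μL. Retention time was taken from computationally picked adduct peaks, each manually inspected, with data collected over 3 months.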

RP-LC retention time [s]	SMILES
708	Cc1ccccc1-n1ncc2c(NCc3ccco3)ncnc21
933	Cc1ccc(-c2cn3c(CC(=O)Nc4ccc(C)c(F)c4)csc3n2)cc1C
907	COc1ccc(-c2nnc(Cc3nc(-c4ccc(F)cc4)no3)o2)cc1OC
973	Cc1ccc(NC(=O)Cn2cccc2-c2nnc(C3CCC3)o2)cc1F
962	Cc1nn(C(C)C(=O)NC2CCC(C)CC2)c(=O)c2nn(-c3ccccc3)c(C)c12 (stereo unspecified)
1080	CCOc1ccc(-c2noc(CN3C(=O)COc4cc(Cl)ccc43)n2)cc1OC
704	Cc1cc2[nH]c(C(=O)Nc3ccc(Cl)cc3C)c(CN(C)C)c2s1
770	CC(NC(=O)CCc1c(-c2ccc(Br)cc2)nc2ccccn12)c1ccccc1 (stereo unspecified)
931	CCOc1cccc2cc(C(=O)Nc3ccccc3S(C)(=O)=O)oc12
982	COc1ccc(NC(=O)N2CCCC2c2nc(-c3ccc(F)cc3F)no2)cc1Cl (stereo unspecified)
661	CC(C)c1nnc2n1CCN(C(=O)c1ccc(Cl)s1)C2
1230	CCCCN1C(=O)C(C)(C(=O)Nc2cc(Cl)ccc2OC)Oc2cccnc21 (stereo unspecified)
788	Cn1c(=O)c(N2CCCC(C(=O)NCc3ccco3)C2)nc2cccnc21 (stereo unspecified)
1050	Cc1ccc(-c2ccc(=O)n(Cc3noc(C(=O)N4CCC(C)CC4)n3)n2)cc1C
1060	CC(C)c1ccc(NC(=O)Cn2cccc2-c2nnc(C3CCC3)o2)cc1
940	CC(C)n1nnc2cc(S(=O)(=O)N3CCCC(C(=O)N(C)Cc4ccccc4)C3)ccc21 (stereo unspecified)
870	Cc1cc(C(=O)Nc2nc3c(s2)CN(C(=O)c2nc4ccccc4s2)CC3)no1
713	NC(=O)Cn1cnc2c(-c3ccc(F)cc3)nsc2c1=O
788	COc1ccc(NC(=O)c2ccc(-c3ccc(-c4noc(C)n4)cc3C)cc2)cc1OCCN(C)C
649	Cc1ccccc1-c1nc2cnccn2c1NCCC(=O)NCc1cccs1
1010	Cc1c(C(=O)NCC(C)C)cnn1-c1cc(-c2nc(C(C)C)no2)ccn1
879	COC(=O)c1ccc(NC(=O)c2cnc3c(c2)c(=O)n(C)c(=O)n3-c2ccccc2)cc1
725	O=C(NCc1[nH]nc2ccccc12)c1ccc(Br)o1

Second part, the molecule before the results:

SMILES	RP-LC retention time [s]
CCc1ccc(NC(=O)c2ccc(=O)n(CCN3CCOCC3)c2)cc1	637
CC(=O)c1cccc(NC(=O)Nc2cccc(-c3ccc(N4CCCC4)nn3)c2)c1	654
Cc1ccccc1N1C(=O)CN(S(C)(=O)=O)CC1(C)C(=O)NCc1ccc(Cl)cc1 (stereo unspecified)	778
O=C(NCc1cccs1)c1cccc(N2CCNC(c3ccccc3)C2)n1 (stereo unspecified)	579
COc1cccc2c1OC1(CCN(C(C)=O)CC1)N1N=C(c3cccs3)CC21 (stereo unspecified)	835
Cc1nn(C(C)C(=O)Nc2cccc(Cl)c2)c(=O)c2c(-n3cccc3)n(-c3ccccc3)nc12 (stereo unspecified)	1200
O=C(Nc1nc2c(s1)CCCC2)c1cccc(C(F)(F)F)c1	1030
COCCNCc1ccc(-c2ccc(Br)cc2)o1	674
O=C1CCCc2nc(N3CCN(c4ccccn4)CC3)ncc21	566
COc1ccccc1C(=O)NC1CCN(c2cc(-c3ccccc3)[nH]n2)C1 (stereo unspecified)	718
Cc1c(Cl)cccc1NC(=O)NCC1CCOCC1	720
COc1ccc(Cl)cc1NC(=O)CCc1c(-c2ccc(F)cc2)nc2ccccn12	724
Cc1cccc(N2C(=O)CN(CCc3cccs3)[C@H]3CS(=O)(=O)C[C@H]32)c1	814
O=C(c1cn(-c2cc(N3CCSCC3)ncn2)cn1)N1CCN(C2CCCCC2)CC1	635
O=C(CN1CCCC1=O)NCc1ccc(F)cc1Cl	656
CC(C)(C)NC(=O)C1CCN(S(C)(=O)=O)c2cc(Cl)ccc2O1 (stereo unspecified)	898
O=C(Cn1c(=O)oc2ccccc21)N1CCCc2ccccc21	866
CCCCN(CC)C(=O)C1CCN(S(=O)(=O)c2ccc3c(c2)NC(=O)CO3)CC1	784
CCc1nnc(NC(=O)C2CC(=O)N(CCc3c[nH]c4ccc(Cl)cc34)C2)s1 (stereo unspecified)	715
N#Cc1ccc(C(=O)Nc2cccnc2N2CCCC2)cc1	583
Cc1ccc(N(C)S(=O)(=O)c2cc3n(c2)CCCN(C(C)C)C3=O)cc1	865
COc1ccc(CNC(=O)C2CCCN(c3ncnc4c3nc3n4CCCCC3)C2)cc1 (stereo unspecified)	732

SMILES	RP-LC retention time [s]
CCS(=O)(=O)N1CCc2nn(Cc3ccccc3)c(=O)n2CC1	687
Cc1cc(C)cc(-n2ccn3c(CCC(=O)NCCc4c[nH]c5ccccc45)nnc3c2=O)c1	744
Cc1cc(OCC(=O)Nc2ccc(F)c(Cl)c2)nc(N2CCN(c3ccccc3)CC2)n1	956
Cc1noc(C)c1-c1ccc(S(=O)(=O)NCC2CCCO2)cc1 (stereo unspecified)	767
CCN1CCn2cc(S(=O)(=O)NCc3cc(F)cc(F)c3)cc2C1=O	794
COC[C@@H]1CN(S(=O)(=O)c2ccc(F)cc2)C[C@H]1c1ccncc1	639
O=C(NC1CCCc2ccccc21)c1cc2sccc2n1Cc1ccc(Cl)cc1 (stereo unspecified)	1320
COc1ccc(Cl)cc1NC(=O)N1CCC(n2cnc3cc(F)ccc3c2=O)CC1	895
Oc1c(C(Nc2ccccc2)c2ccccn2)ccc2cccnc12 (stereo unspecified)	763
CCN(CC)CCNC(=O)C1c2ccccc2Oc2ccccc21	655
O=C(Nc1ccc2c(c1)OCCO2)C1CCCN(C(=O)c2cc(-c3ccccn3)n[nH]2)C1 (stereo unspecified)	656
Cc1cc(C)c(S(=O)(=O)N2CCC(n3cnc4ccc(C)cc4c3=O)CC2)c(C)c1	640
COc1cccc(NC(=O)Nc2cc3c(cc2Oc2ccccc2)n(C)c(=O)n3C)c1	804
Cc1cccc(C)c1OCC(=O)c1ccc2c(c1)N(CCCC(=O)NCC1CCCO1)C(=O)CO2 (stereo unspecified)	803
CC1=C(c2ccc(F)cc2)S(=O)(=O)N=C1N1CCCN(C(=O)C2CC2)CC1	734
Cc1ccc(C2Cn3cnc(C(=O)N4CCC(C(=O)NC5CCCC5)CC4)c3CO2)cc1 (stereo unspecified)	749
O=c1ccc(N2CCCN(S(=O)(=O)c3ccccc3F)CC2)nn1-c1ccccc1	820
O=C(Cn1c(-c2cccs2)cc2cc(Cl)ccc21)N1CCN(c2ccccn2)CC1	809
Cn1c(=O)n([C@H]2CCN(C(=O)C3CC3)C2)c2ncccc21	639
O=S(=O)(Nc1ccc2c(c1)OCO2)c1ccc2ccccc2c1	953
NC(=O)c1cc(=O)[nH]c2ccc(F)cc12	558
